According to ChEMBL document CHEMBL1142817, “Modeling K(m) values using electrotopological state: substrates for cytochrome P450 3A4-mediated metabolism” (Bioorg Med Chem Lett, 2005):

Target: Cytochrome P450 3A4 (Homo sapiens, UniProt P08684)
Test: log (1/Km) value for human liver microsome cytochrome P450 3A4
Conditions: microsomes

Chain of Cytochrome P450 3A4 (P08684 whole entry): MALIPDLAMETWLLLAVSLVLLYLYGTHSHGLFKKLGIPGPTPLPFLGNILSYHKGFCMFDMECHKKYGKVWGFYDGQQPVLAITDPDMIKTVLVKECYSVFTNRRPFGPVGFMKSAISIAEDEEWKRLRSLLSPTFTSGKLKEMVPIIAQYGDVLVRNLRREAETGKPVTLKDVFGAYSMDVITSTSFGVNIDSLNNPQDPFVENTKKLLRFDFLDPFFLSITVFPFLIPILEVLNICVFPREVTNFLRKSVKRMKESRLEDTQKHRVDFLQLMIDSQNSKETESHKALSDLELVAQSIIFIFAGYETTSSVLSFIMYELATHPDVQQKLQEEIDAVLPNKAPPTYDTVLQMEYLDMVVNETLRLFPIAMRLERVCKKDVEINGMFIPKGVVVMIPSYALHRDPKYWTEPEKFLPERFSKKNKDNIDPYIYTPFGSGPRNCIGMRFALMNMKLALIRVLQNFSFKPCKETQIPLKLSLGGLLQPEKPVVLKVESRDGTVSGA

| SMILES | Log 1/Km |
| --- | --- |
| C/C=C/c1ccc(OC)c(CN[C@H]2C3CCN(CC3)[C@H]2C(c2ccccc2)c2ccccc2)c1 | -1.3424 |
| O=C(N[C@H](/C=C/S(=O)(=O)c1ccccc1)CCc1ccccc1)[C@H](Cc1ccccc1)NC(=O)N1CCOCC1 | -1.4843 |
| CN(C)c1ccc([C@H]2C[C@]3(C)[C@@H](CC[C@]3(O)CCCO)C3CCC4=CC(=O)CCC4=C32)cc1 (single isomer, unassigned) [ONAPRISTONE] | -1.2923 |
| O=[N+]([O-])c1ccc2ccc3cccc4ccc1c2c34 [1-NITROPYRENE] | -0.5185 |
| CN(C)Cc1nnc2n1-c1ccc(Cl)cc1C(c1ccccc1)=NC2 [ADINAZOLAM] | -1.9628 |
| Cc1nnc2n1-c1ccc(Cl)cc1C(c1ccccc1)=NC2 [ALPRAZOLAM] | -2.4232 |
| CN(C)CCC=C1c2ccccc2CCc2ccccc21 [AMITRIPTYLINE] | -1.8407 |
| ClC(Cl)Br [BROMODICHLOROMETHANE] | -1.4472 |
| CCCCN1CCCC[C@@H]1C(=O)Nc1c(C)cccc1C [BUPIVACAINE] | -2.0967 |
| NC(=O)N1c2ccccc2C=Cc2ccccc21 [CARBAMAZEPINE] | -2.6532 |
| CC(C)(C)NCC(O)COc1cccc2c1CCC(=O)N2 (stereo not drawn) [CARTEOLOL] | -1.8432 |
| CN(C)CCCC1(c2ccc(F)cc2)OCc2cc(C#N)ccc21 (stereo not drawn) [CITALOPRAM] | -2.4548 |
| CC[C@H]1OC(=O)[C@H](C)[C@@H](O[C@H]2C[C@@](C)(OC)[C@@H](O)[C@H](C)O2)[C@H](C)[C@@H](O[C@@H]2O[C@H](C)C[C@H](N(C)C)[C@H]2O)[C@](C)(OC)C[C@@H](C)C(=O)[C@H](C)[C@@H](O)[C@]1(C)O [CLARITHROMYCIN] | -1.6875 |
| Nc1ccc(S(=O)(=O)c2ccc(N)cc2)cc1 [DAPSONE] | -2.2304 |
| CC(=O)O[C@@]12CO[C@@H]1C[C@H](O)[C@@]1(C)C(=O)[C@H](O)C3=C(C)[C@@H](OC(=O)[C@H](O)[C@@H](NC(=O)OC(C)(C)C)c4ccccc4)C[C@@](O)([C@@H](OC(=O)c4ccccc4)[C@H]21)C3(C)C.O.O.O [DOCETAXEL] | -0.0414 |
| CC[C@H]1OC(=O)[C@H](C)[C@@H](O[C@H]2C[C@@](C)(OC)[C@@H](O)[C@H](C)O2)[C@H](C)[C@@H](O[C@@H]2O[C@H](C)C[C@H](N(C)C)[C@H]2O)[C@](C)(O)C[C@@H](C)C(=O)[C@H](C)[C@@H](O)[C@]1(C)O [ERYTHROMYCIN] | -1.7853 |
| CCOc1ccc2ccc(=O)oc2c1 [ETHOXYCOUMARIN] | -3.4771 |
| CN1C(=O)CN=C(c2ccccc2F)c2cc([N+](=O)[O-])ccc21 [FLUNITRAZEPAM] | -2.1892 |
| C[C@]12CCC(=O)C=C1CC[C@@H]1[C@@H]2[C@@H](O)C[C@@]2(C)[C@H]1CC[C@]2(O)C(=O)CO [HYDROCORTISONE] | -1.1818 |

| SMILES | Log 1/Km |
| --- | --- |
| CCc1c2c(nc3ccc(OC(=O)N4CCC(N5CCCCC5)CC4)cc13)-c1cc3c(c(=O)n1C2)COC(=O)[C@]3(O)CC [IRINOTECAN] | -1.2648 |
| CN(C)c1ccc([C@H]2C[C@@]3(C)[C@@H](CC[C@@]3(O)/C=C\CO)[C@@H]3CCC4=CC(=O)CCC4=C32)cc1 [LILOPRISTONE] | -0.9445 |
| COc1ccc2[nH]c([S+]([O-])Cc3ncc(C)c(OC)c3C)nc2c1 (stereo not drawn) [OMEPRAZOLE] | -1.6902 |
| CC(=O)O[C@H]1C(=O)[C@@]2(C)[C@H]([C@H](OC(=O)c3ccccc3)[C@]3(O)C[C@H](OC(=O)[C@H](O)[C@@H](NC(=O)c4ccccc4)c4ccccc4)C(C)=C1C3(C)C)[C@]1(OC(C)=O)CO[C@@H]1C[C@@H]2O [PACLITAXEL] | -1.2553 |
| O=c1[nH]c2ccccc2n1C1CCN(CCCC(c2ccc(F)cc2)c2ccc(F)cc2)CC1 [PIMOZIDE] | -0.7559 |
| CO[C@H]1/C=C/O[C@@]2(C)Oc3c(C)c(O)c4c(c3C2=O)C2=NC3(CCN(CC(C)C)CC3)NC2=C(NC(=O)/C(C)=C\C=C\[C@H](C)[C@H](O)[C@@H](C)[C@@H](O)[C@@H](C)[C@H](OC(C)=O)[C@@H]1C)C4=O [RIFABUTIN] | -1.0373 |
| C/C=C1/C[C@@H](C)[C@@](C)(O)C(=O)OCC2=CCN3CC[C@@H](OC1=O)[C@@H]23 [SENECIONINE] | -2.4772 |
| CO[C@H]1C[C@@H]2CC[C@@H](C)[C@@](O)(O2)C(=O)C(=O)N2CCCC[C@H]2C(=O)O[C@H]([C@H](C)C[C@@H]2CC[C@@H](O)[C@H](OC)C2)CC(=O)[C@H](C)/C=C(\C)[C@@H](O)[C@@H](OC)C(=O)[C@H](C)C[C@H](C)/C=C/C=C/C=C/1C [SIROLIMUS] | -0.9069 |
| C=CC[C@@H]1/C=C(\C)C[C@H](C)C[C@H](OC)[C@H]2O[C@@](O)(C(=O)C(=O)N3CCCC[C@H]3C(=O)O[C@H](/C(C)=C/[C@@H]3CC[C@@H](O)[C@H](OC)C3)[C@H](C)[C@@H](O)CC1=O)[C@H](C)C[C@@H]2OC [TACROLIMUS ANHYDROUS] | -0.792 |
| CC/C(=C(\c1ccccc1)c1ccc(OCCN(C)C)cc1)c1ccccc1 [TAMOXIFEN] | -1.9912 |
| C[C@H](CCC(=O)NCCS(=O)(=O)O)[C@H]1CC[C@H]2[C@@H]3[C@H](O)C[C@@H]4C[C@H](O)CC[C@]4(C)[C@H]3CC[C@]12C [TAUROCHENODEOXYCHOLATE] | -1.9542 |
| CC(C)(C)c1cc(CC2SCNC2=O)cc(C(C)(C)C)c1O (stereo not drawn) [TAZOFELONE] | -0.996 |
| CS(=O)(=O)O.C[C@@H]1C[C@H]2[C@@H]3CCC4=CC(=O)C=C[C@]4(C)C3=CC[C@]2(C)[C@H]1C(=O)CN1CCN(c2cc(N3CCCC3)nc(N3CCCC3)n2)CC1 [TIRILAZAD MESYLATE] | -0.2601 |
| Cc1c(C)c2c(c(C)c1O)CCC(C)(COc1ccc(CC3SC(=O)NC3=O)cc1)O2 (stereo not drawn) [TROGLITAZONE] | -2.7918 |
| COc1ccc(C(CN(C)C)C2(O)CCCCC2)cc1 (stereo not drawn) [VENLAFAXINE] | 0.0899 |
| CC[C@]1(O)C[C@@H]2CN(CCc3c([nH]c4ccccc34)[C@@](C(=O)OC)(c3cc4c(cc3OC)N(C)[C@H]3[C@@](O)(C(=O)OC)[C@H](OC(C)=O)[C@]5(CC)C=CCN6CC[C@]43[C@@H]65)C2)C1 [VINBLASTINE] | -0.834 |
| CC[C@]1(O)C[C@@H]2CN(CCc3c([nH]c4ccccc34)[C@@](C(=O)OC)(c3cc4c(cc3OC)N(C)[C@H]3[C@@](O)(C(N)=O)[C@H](O)[C@]5(CC)C=CCN6CC[C@]43[C@@H]65)C2)C1 [VINDESINE] | -1.3927 |
| CN1[C@@H]2CC[C@H]1C[C@@H](NC(=O)c1cc(Cl)cc3c1OC(C)(C)C3)C2 [ZATOSETRON] | -2.3901 |
| CC(c1cc2ccccc2s1)N(O)C(N)=O (stereo not drawn) [ZILEUTON] | -2.1938 |
